Literature values, collected in patent publication US9901523B2, “Oral care products comprising zinc oxide and trimethylglycine” (Colgate-Palmolive Company, priority 2012, dated 2018).

Settings: water at 30° C.

## [O]=[Zn] [Zinc oxide]
  solubility of zinc oxide: about 0.16 mg per 100 ml of water
